Measurements from patent US9283234B2, “Compositions and methods for suppressing endometrial proliferation” (REPROS THERAPEUTICS INC., priority 2006, dated 2016).

Assays:
[1] = Six month endometriosis study: estrogen and biomarkers of bone resorption; assay type: in vivo, pre-menopausal adult women
Description: Thirty-nine pre-menopausal adult women diagnosed with endometriosis were the subject of a six month study of Proellex™ (CDB-4124) in the treatment of endometriosis. The study included three dose levels of CDB-4124 as well as a positive control arm. The positive control was LUCRIN, a GnRH agonist, commonly used for the treatment of endometriosis (also known as LUPRON. CDB-4124 was administered in a double blinded fashion as a daily oral capsule at dosages of 12.5 mg/day (n=2), 25 mg/day (n=3) and 50 mg/day (n=3). Another group (n=4) were injected with a slow release formulation of LUCRIN once per month as a positive control.

[2] = Six month endometriosis study: side effects and bleeding; assay type: in vivo, pre-menopausal adult women; details: for non-menstrual spotting and bleeding with excessive endometrial thickening, D&C performed: treatment phase
Description: Although this was a small study and no definitive conclusions can be made from the safety data, there was no single signal of safety observed.
A similar event was not seen at the 50 mg dose during the treatment phase. Greater than normal bleeding occurred in two patients in the 50 mg CDB-4124 group after treatment was stopped and a D&C was performed in one and the other successfully managed conservatively.

[3] = Measuring serum cortisol in rats; assay type: in vivo
endometrium = assay: Six month endometriosis study: endometrial thickness (ultrasound) / endometrial proliferation; assay type: in vivo, pre-menopausal adult women
Excerpt: Comparisons were made to both baseline and visit one ultrasound measurements of endometrial thickness. […]

[4] = estrogenic, androgenic, anti-estrogenic and anti-androgenic activities
Excerpt: These methods include receptor binding and in vivo bioassays such as anti-McGinty, anti-Clauberg, glucocorticoid, estrogenic, androgenic, anti-glucocorticoid (AG), anti-estrogen, and anti-androgen activities as well as post-coital and anti-ovulatory activities where in the leading compounds of the instant invention are used as a reference.

[5] = Measuring serum corticosterone in rats
[6] = system: pain associated with endometriosis; assay: Six month endometriosis study: pain diaries and symptom surveys; assay type: in vivo, pre-menopausal adult women; set-up: key to score for intensity of pain on a bad day: 0-10 scale; 0 = no pain, 10 = extreme pain
Description: Pain reduction also occurred more rapidly than with the active control, LUCRIN. The response of pain to treatment in this study was analyzed in two ways. Patients in the study maintained daily pain diaries to record the severity and frequency of pain. In addition, at each office visit, patients filled out endometriosis symptom surveys that included a questionnaire that evaluated intensity of pain on a bad day on a scale of 0-10 with 10 being the greatest intensity. […] There appeared to be a dose dependent effect on pain reduction. […] This decrease in duration of pain was statistically better (p=0.0012) than the 117.8 (74%; standard deviation 51.4 days) pain free days achieved with LUCRIN. […] Patients on CDB-4124 12.5 mg and 25 mg doses had 115.9 (66%; standard deviation 69.2 days) and 133.6 (75%; standard deviation 27.4 days) pain free days, respectively. […] The 25 mg and 12.5 mg doses of CDB-4124 were not statistically different from LUCRIN. […] The intensity of pain was asked by the question: “On a scale of 1-10, with 0 being no pain and 10 being extreme pain, how intense was your pain on a bad day?” The mean scores for intensity of pain at baseline were 6.3 for the CDB-4124 groups and 6.1 for the LUCRIN group. […] At month three all four active treatment groups had statistically significant reduction in pain compared with baseline, with the following scores: 3.7 (p=0.03) for 12.5 mg CDB-4124, 3.2 (p=0.03) for 25 mg CDB-4124, 1.6 (p=0.015) for 50 mg CDB-4124 and 1.5 (p=0.016) for LUCRIN. These dose related reductions continued until month six when the values for pain intensity were 2.0 (p=0.008), 2.8 (p=0.023), 0.6 (p=0.004) and 0.7 (p=0.016), respectively. Two months after stopping treatment pain returned and was of similar intensity in all four treatment groups.

[7] = Attardi et al., 2002; cited from earlier work

COCC(=O)[C@@]1(OC(C)=O)CC[C@H]2[C@@H]3CCC4=CC(=O)CCC4=C3[C@@H](c3ccc(N(C)C)cc3)C[C@@]21C [CDB-4124, 21-methoxy-17α-acetoxy-11β-(4 N,N-dimethylaminophenyl)-19-norpregna-4,9-diene-3,20-dione]
estrogen concentration (mean) ([1]; all doses of CDB-4124): > 40 pg/mL
biomarkers of bone resorption compared with baseline ([1]; month three (LUCRIN, p=0.023), three and six months (any dose arm of CDB-4124)): no significant changes in biomarkers of bone resorption
non-menstrual spotting and bleeding with excessive endometrial thickening, D&C performed ([2]; 12.5 mg and 25 mg groups): two cases
non-menstrual spotting and bleeding with excessive endometrial thickening, D&C performed ([2]; 50 mg dose): not seen
greater than normal bleeding after treatment was stopped ([2]; 50 mg group): two patients
serum cortisol versus control group ([3]; 10 mg/kg, 21 days of chronic dosing, FIG. 1): significantly higher levels of serum cortisol
dose-dependent effect on serum cortisol ([3]; increasing doses, FIG. 2): increased cortisol
women exhibiting thickened endometrium after three months (endometrium; 12.5 mg (n=4)): two women
women exhibiting thickened endometrium after three months (endometrium; 25 mg (n=4)): One person
women exhibiting thickened endometrium after three months (endometrium; 50 mg (n=3)): none of the women
endometrial proliferation in adult females (endometrium; high dosage 50 mg/day): suppresses endometrial proliferation
endometrial proliferation in adult females (endometrium; lower dosages 25 mg/day and 12.5 mg/day): does not suppress endometrial proliferation
estrogenic, androgenic, anti-estrogenic, and anti-androgenic activities [4]: lack
effect on the primary glucocorticoid of the rat (corticosterone) [5]: no strong effect
differences in serum corticosterone between treatment groups ([5]; progesterone, CDB-4124 and RU-486 groups compared): No differences in serum corticosterone
days of pain over the first three months versus highest dose of CDB-4124 or LUCRIN ([6]; 25 mg and 12.5 mg daily oral): more days of pain
relief from pain (intensity) by the first month ([6]; 25 mg and 50 mg groups): Statistically significant relief from pain
days of pain at the end of the first month compared with baseline ([6]; 50 mg, p=0.031): statistically significant reduction in days of pain
distress related to pain over the six month exposure ([6]; all doses, on average): reduced distress related to pain
mean score for intensity of pain on a bad day ([6]; baseline, scale 0-10): 6.3
score for intensity of pain on a bad day ([6]; month six, 12.5 mg): 2.0
score for intensity of pain on a bad day ([6]; month six, 25 mg): 2.8
score for intensity of pain on a bad day ([6]; month six, 50 mg): 0.6
score for intensity of pain on a bad day ([6]; month three, 12.5 mg): 3.7
score for intensity of pain on a bad day ([6]; month three, 25 mg): 3.2
score for intensity of pain on a bad day ([6]; month three, 50 mg): 1.6

CNc1ccc([C@H]2C[C@@]3(C)[C@@H](CC[C@]3(OC(C)=O)C(=O)COC)[C@@H]3CCC4=CC(=O)CCC4=C32)cc1 [CDB-4453, 21-methoxy-17α-acetoxy-11β-(4-N-methylaminophenyl)-19-norpregna-4,9-diene-3,20-dione]
anti-glucocorticoid activity relative to parent CDB-4124 [7]: even lower anti-glucocorticoid activity than its parent
